Experimental findings from US10894784B2, “Heteroarylbenzimidazole compounds” (BAYER PHARMA AKTIENGESELLSCHAFT, priority 2015, dated 2021) are described below.

This experiment deals with TBK1 (Homo sapiens (Human), UniProt Q9UHD2). Description: TBK1 low ATP kinase assay (in vitro assay 1). The experiment is classed as biochemical.
Where [1] appears, read: in vitro assay 1, read-out: TBK1 low ATP kinase assay IC50.

Where two headings read alike, the source gives them in different places.

Sequence of TBK1 (Q9UHD2 whole entry): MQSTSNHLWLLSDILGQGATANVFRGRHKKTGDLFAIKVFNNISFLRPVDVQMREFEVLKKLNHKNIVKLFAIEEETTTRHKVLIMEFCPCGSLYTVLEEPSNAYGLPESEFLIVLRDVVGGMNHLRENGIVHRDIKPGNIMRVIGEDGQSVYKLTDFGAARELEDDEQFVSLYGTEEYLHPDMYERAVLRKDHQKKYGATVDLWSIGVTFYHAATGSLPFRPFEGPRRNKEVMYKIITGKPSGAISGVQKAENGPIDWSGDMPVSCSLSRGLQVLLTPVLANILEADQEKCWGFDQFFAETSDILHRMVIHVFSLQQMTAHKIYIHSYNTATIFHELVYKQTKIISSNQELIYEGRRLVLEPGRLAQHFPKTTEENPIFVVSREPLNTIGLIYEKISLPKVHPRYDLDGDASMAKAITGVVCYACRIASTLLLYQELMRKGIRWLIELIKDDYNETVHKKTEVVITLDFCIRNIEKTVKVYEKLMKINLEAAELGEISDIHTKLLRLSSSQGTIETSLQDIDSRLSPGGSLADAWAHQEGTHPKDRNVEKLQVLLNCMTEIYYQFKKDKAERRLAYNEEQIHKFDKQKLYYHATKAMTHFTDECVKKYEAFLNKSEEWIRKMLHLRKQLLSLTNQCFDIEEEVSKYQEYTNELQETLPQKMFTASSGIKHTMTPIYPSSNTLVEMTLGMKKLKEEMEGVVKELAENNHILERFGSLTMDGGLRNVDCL

In the case of `CC(=O)c1cc(-c2ccc3nc(Nc4cc(CN5CCN(C(=O)CC(F)(F)F)CC5)ccn4)[nH]c3c2)ncn1` [Example 97.03, 1-{4-[(2-{[6-(6-acetylpyrimidin-4-yl)-1H-benzimidazol-2-yl]amino}pyridin-4-yl)methyl]piperazin-1-yl}-3,3,3-trifluoropropan-1-one], the concentration for half-maximal inhibition (IC50) under setting [1] amounted to 29 nM. Turning to `COc1cc(-c2ccc3nc(Nc4cc(CN5CCN(C(=O)CC(F)(F)F)CC5)ccn4)[nH]c3c2)ccn1` [Example 02.03, 3,3,3-trifluoro-1-{4-[(2-{[6-(2-methoxypyridin-4-yl)-1H-benzimidazol-2-yl]amino}pyridin-4-yl)methyl]piperazin-1-yl}propan-1-one], under setting [1], the IC50 was 36.8 nM. Still for that read-out and setting: the same measure for `COc1c(NC2CCC2)ncnc1-c1ccc2nc(Nc3cc(C(C)N4CCN(C(=O)CC(F)(F)F)CC4)ccn3)[nH]c2c1` (single isomer, unassigned) [Example 114.02, 1-(4-{(1R or 1S)-1-[2-({6-[6-(cyclobutylamino)-5-methoxypyrimidin-4-yl]-1H-benzimidazol-2-yl}amino)pyridin-4-yl]ethyl}piperazin-1-yl)-3,3,3-trifluoropropan-1-one]: 8.27 nM; for `O=C(CC(F)(F)F)N1CCN(Cc2ccnc(Nc3nc4ccc(-c5cnn(CC(F)(F)F)c5)cc4[nH]3)c2)CC1` [Example 58.01.02, 3,3,3-trifluoro-1-(4-{[2-({6-[1-(2,2,2-trifluoroethyl)-1H-pyrazol-4-yl]-1H-benzimidazol-2-yl}amino)pyridin-4-yl]methyl}piperazin-1-yl)propan-1-one]: 9.81 nM; for `CCN(C)c1cc(-c2ccc3nc(Nc4cc(CN5CCN(C(=O)CC(F)(F)F)CC5)ccn4)[nH]c3c2)ncn1` [Example 148.02, 1-[4({2-[(6-{6-[ethyl(methyl)amino]pyrimidin-4-yl}-1H-benzimidazol-2-yl)amino]pyridin-4-yl}methyl)piperazin-1-yl]-3,3,3-trifluoropropan-1-one]: 6.5 nM.

As to `O=C(C1CC1)N1CCN(Cc2ccnc(Nc3nc4ccc(-c5ncc[nH]5)cc4[nH]3)c2)CC1` [Example 43.01, cyclopropyl{4-[(2-{[6-(1H-imidazol-2-yl)-1H-benzimidazol-2-yl]amino}pyridin-4-yl)methyl]piperazin-1-yl}methanone], the IC50 under setting [1] came to 262 nM. For `COc1nccc(-c2ccc3nc(Nc4cc(CN5CCN(C(=O)C6CCC6)CC5)ccn4)[nH]c3c2)n1` [Example 25.01.02, cyclobutyl{4-[(2-{[6-(2-methoxypyrimidin-4-yl)-1H-benzimidazol-2-yl]amino}pyridin-4-yl)methyl]piperazin-1-yl}methanone], under setting [1], the IC50 worked out at 218 nM. The same measure, in the same setting: next, `CC(c1ccnc(Nc2nc3ccc(-c4cc(N5CCOCC5)ncn4)cc3[nH]2)c1)N1CCN(C(=O)C2CC2)CC1` (single isomer, unassigned) [Example 118.02, cyclopropyl(4-{(1R or 1S)-1-[2-({6-[6-(morpholin-4-yl)pyrimidin-4-yl]-1H-benzimidazol-2-yl}amino)pyridin-4-yl]ethyl}piperazin-1-yl)methanone]: 3.3 nM. Still for that read-out and setting: next, `C=CCC(=O)N1CCN(Cc2ccnc(Nc3nc4ccc(-c5nc(C6CC6)no5)cc4[nH]3)c2)CC1` [Example 17.04, 1-{4-[(2-{[6-(3-cyclopropyl-1,2,4-oxadiazol-5-yl)-1H-benzimidazol-2-yl]amino}pyridin-4-yl)methyl]piperazin-1-yl}but-3-en-1-one]: 102 nM; `COCc1cc(-c2ccc3nc(Nc4cc(C(C)N5CCN(C(=O)OC(C)(C)C)CC5)ccn4)[nH]c3c2)ncn1` (single isomer, unassigned) [Example 84.01, tert-butyl 4-{(1R or 1S)-1-[2-({6-[6-(methoxymethyl)pyrimidin-4-yl]-1H-benzimidazol-2-yl}amino)pyridin-4-yl]ethyl}piperazine-1-carboxylate]: 1.1 nM; `Cc1nnc(-c2ccc3nc(Nc4cc(CN5CCN(C(=O)C6CC6)CC5)ccn4)[nH]c3c2)o1` [Example 66.01.02, cyclopropyl{4-[(2-{[6-(5-methyl-1,3,4-oxadiazol-2-yl)-1H-benzimidazol-2-yl]amino}pyridin-4-yl)methyl]piperazin-1-yl}methanone]: 33 nM. Regarding `Cc1noc(-c2ccc3nc(Nc4cc(CN5CCN(C(=O)C6CCC6)CC5(C)C)ccn4)[nH]c3c2)n1` [Example 16.04.05, cyclobutyl{3,3-dimethyl-4-[(2-{[6-(3-methyl-1,2,4-oxadiazol-5-yl)-1H-benzimidazol-2-yl]amino}pyridin-4-yl)methyl]piperazin-1-yl}methanone], the concentration for half-maximal inhibition (IC50) under setting [1] stood at 491 nM.

In the case of `O=C(CC(F)(F)F)N1CCN(Cc2ccnc(Nc3nc4ccc(-c5c(F)cncc5Cl)cc4[nH]3)c2)CC1` [Example 132.02, 1-{4-[(2-{[6-(3-chloro-5-fluoropyridin-4-yl)-1H-benzimidazol-2-yl]amino}pyridin-4-yl)methyl]piperazin-1-yl}-3,3,3-trifluoropropan-1-one], under setting [1], the IC50 is 190 nM.

For the molecule `Cc1noc(-c2ccc3nc(Nc4cc(C(C)N5CCN(C(=O)C6CC6)CC5)ccn4)[nH]c3c2)n1` (racemic) [Example 16.05.03, (rac)-cyclopropyl{4-[1-(2-{[6-(3-methyl-1,2,4-oxadiazol-5-yl)-1H-benzimidazol-2-yl]amino}pyridin-4-yl)ethyl]piperazin-1-yl}methanone], the 50% inhibitory concentration (IC50) under setting [1] came to 43.1 nM.

`O=C(C1CC1)N1CCN(Cc2ccnc(Nc3nc4ccc(-c5cnc(C6CC6)nc5)cc4[nH]3)c2)CC1` [Example 45.04.01, cyclopropyl{4-[(2-{[6-(2-cyclopropylpyrimidin-5-yl)-1H-benzimidazol-2-yl]amino}pyridin-4-yl)methyl]piperazin-1-yl}methanone]: the IC50 under setting [1] is 2240 nM. Still for that read-out and setting: the same measure for `COc1c(NC2CC2)ncnc1-c1ccc2nc(Nc3cc(CN4CCN(C(=O)CC(F)(F)F)CC4)ccn3)[nH]c2c1` [Example 108.02, 1-(4-{[2-({6-[6-(cyclopropylamino)-5-methoxypyrimidin-4-yl]-1H-benzimidazol-2-yl}amino)pyridin-4-yl]methyl}piperazin-1-yl)-3,3,3-trifluoropropan-1-one]: 8.2 nM.

Under “TBK1 low ATP kinase assay IC50, in vitro assay 1”, `CC(C)Oc1cncnc1-c1ccc2nc(Nc3cc(C(C)N4CCN(C(=O)CC(F)(F)F)CC4)ccn3)[nH]c2c1` (single isomer, unassigned) [Example 36.02, 3,3,3-trifluoro-1-(4-{(1R or 1S)-1-[2-({6-[5-(propan-2-yloxy)pyrimidin-4-yl]-1H-benzimidazol-2-yl}amino)pyridin-4-yl]ethyl}piperazin-1-yl)propan-1-one] registered an IC50 of 1.96 nM.

`CC(c1ccnc(Nc2nc3ccc(-c4cc(N5CC(F)(F)C5)ncn4)cc3[nH]2)c1)N1CCN(C(=O)CC(F)(F)F)CC1` (single isomer, unassigned) [Example 116.03, 1-(4-{(1R or 1S)-1-[2-({6-[6-(3,3-difluoroazetidin-1-yl)pyrimidin-4-yl]-1H-benzimidazol-2-yl}amino)pyridin-4-yl]ethyl}piperazin-1-yl)-3,3,3-trifluoropropan-1-one]: the half-inhibitory concentration (IC50) under setting [1] was determined as 1.3 nM. Turning to `CC(c1ccnc(Nc2nc3ccc(-c4cnn(CC5CC5(F)F)c4)cc3[nH]2)c1)N1CCN(C(=O)OC(C)(C)C)CC1` (single isomer, unassigned) [Example 55.01.01, tert-butyl 4-[(1R or 1S)-1-(2-{[6-(1-{[(1R or 1S)-2,2-difluorocyclopropyl]methyl}-1H-pyrazol-4-yl)-1H-benzimidazol-2-yl]amino}pyridin-4-yl)ethyl]piperazine-1-carboxylate], the IC50 under setting [1] is 5.5 nM. Turning to `COCc1cc(-c2ccc3nc(Nc4cc(C(C)N5CCN(C(=O)CC(F)(F)F)CC5)ccn4)[nH]c3c2Cl)ncn1` (single isomer, unassigned) [Example 99.01, 1-(4-{(1R or 1S)-1-[2-({7-chloro-6-[6-(methoxymethyl)pyrimidin-4-yl]-1H-benzimidazol-2-yl}amino)pyridin-4-yl]ethyl}piperazin-1-yl)-3,3,3-trifluoropropan-1-one], under setting [1], the half-inhibitory concentration (IC50) came out at 33 nM. With `N#Cc1cnccc1-c1ccc2nc(Nc3cc(CN4CCN(C(=O)CC(F)(F)F)CC4)ccn3)[nH]c2c1` [Example 133.02, 4-{2-[(4-{[4-(3,3,3-trifluoropropanoyl)piperazin-1-yl]methyl}pyridin-2-yl)amino]-1H-benzimidazol-6-yl}pyridine-3-carbonitrile], the IC50 under setting [1] was 140 nM. For `COc1c(NCC2CC2)ncnc1-c1ccc2nc(Nc3cc(C(C)N4CCN(C(=O)CC(F)(F)F)CC4)ccn3)[nH]c2c1` (single isomer, unassigned) [Example 109.02.03, 1-{4-[(1R or 1S)-1-{2-[(6-{6-[(cyclopropylmethyl)amino]-5-methoxypyrimidin-4-yl}-1H-benzimidazol-2-yl)amino]pyridin-4-yl}ethyl]piperazin-1-yl}-3,3,3-trifluoropropan-1-one], the concentration for half-maximal inhibition (IC50) under setting [1] is 2.4 nM.

On to `CC(c1ccnc(Nc2nc3ccc(-c4cc(OCC(F)(F)C(F)(F)F)ncn4)cc3[nH]2)c1)N1CCN(C(=O)[C@@H]2CC2(F)F)CC1` (single isomer, unassigned) [Example 166.05, ((1RS)-2,2-difluorocyclopropyl)(4-{(1R or 1S)-1-[2-({6-[6-(2,2,3,3,3-pentafluoropropoxy)pyrimidin-4-yl]-1H-benzimidazol-2-yl}amino)pyridin-4-yl]ethyl}piperazin-1-yl)methanone], for which the IC50 under setting [1] came to 34.2 nM. As to `CCN(CC)c1cc(-c2ccc3nc(Nc4cc(CN5CCN(C(=O)C6CC6)CC5)ccn4)[nH]c3c2)ncn1` [Example 155.03, cyclopropyl(4-{[2-({6-[6-(diethylamino)pyrimidin-4-yl]-1H-benzimidazol-2-yl}amino)pyridin-4-yl]methyl}piperazin-1-yl)methanone], the half-maximal inhibitory concentration (IC50) under setting [1] worked out at 17 nM. Consider `CC(C)Nc1ncnc(-c2ccc3nc(Nc4cc(CN5CCN(C(=O)OC(C)(C)C)CC5)ccn4)[nH]c3c2)c1F` [Example 193.01, tert-butyl 4-{[2-({6-[5-fluoro-6-(propan-2-ylamino)pyrimidin-4-yl]-1H-benzimidazol-2-yl}amino)pyridin-4-yl]methyl}piperazine-1-carboxylate], for which the IC50 under setting [1] amounted to 42.1 nM.

What is called IC50 is the midpoint of a concentration-inhibition curve.
